Here are results for two compounds from patent US5688773A, “Method of selectively destroying neoplastic cells” (priority 1994, dated 1997).

For series [1], the system named is C6BAG cells co-cultured with C6VIKWT cells. The series can be described thus: Simultaneous co-culture, ganciclovir sensitivity of recipient colonies. Type of series: cell-based, rat. To be noted: 100 μM ganciclovir; donor:recipient ratios of 0.1 and 1. As for the experimental part:
For simultaneous co-culture experiments, 10^3 recipient cells, C6BAG or C6BBAG were plated together with 10^5 C6VIK or C6VIKWT donor cells, in duplicate. Controls were C6BAG or C6BBAG cells co-plated with C6BU1 cells at a similar ratio (1:100). After seven days, ganciclovir was added at varying concentrations (0 to 300 μM) and culture was processed as above. To assess the effects of the ratio of the donor cells to recipient cells, simultaneous co-culture experiments were also done varying the ratio of the donor cell, C6VIKWT, to the recipient cell, C6BAG, from 0.1 to 100.

In series [2] the test system is C6BAG and C6VIK cells. The series can be described thus: Ganciclovir treatment of combined subcutaneous tumors. To be noted: 14 day course, 25 mg/kg twice a day intraperitoneally. The format is in vivo, nude mice. The method, then:
Sequential injections of 10^5 C6BAG cells followed immediately by 10^6 C6BU1 cells, C6VIK cells, or C6VIKWT cells at the same injection site, were carried out as above using 20 animals for each combination. After the tumors had reached 1 cm in diameter, ganciclovir treatment was begun for 14 days, 25 mg/kg twice a day intraperitoneally in half of each group, with the other half receiving PBS intraperitoneally as a control. Tumor volume was assessed as the percentage increase over the volume at the beginning of treatment through 17 days.

Series [3] deals with C6VIK cells. The series can be described thus: Ganciclovir sensitivity, cell proliferation assay. Type of series: cell-based. Particulars: Rattus norvegicus, 96 h; four-day period; read-out: Fifty percent inhibition of growth. As for the experimental part: (§1) Ganciclovir Sensitivity Assays in Culture: To measure the sensitivity of isolated cells, cells were plated in 24-well plates at a density of 10^4 cells per well. The next day, medium was replaced with medium containing ganciclovir (Cytovene, Burroughs Wellcome) at varying concentrations (0-1 μM) in quadruplicate. Four days later, cells were harvested using trypsin and counted using a cell counter (Coulter Electronics Ltd., Luton, United Kingdom). Cell growth is expressed as the percentage of cells compared to the number of cells without treatment (100%).

The test system of series [4] is C6VIKWT cells. The experiment in a line: Ganciclovir sensitivity, cell proliferation assay. Type of series: cell-based. To be noted: Rattus norvegicus, 96 h; four-day period; read-out: Fifty percent inhibition of growth. As for the experimental part: as §1
The test system of series [5] is parental C6 cells. To be noted: subcutaneous, nude mice; cited from earlier work.
Series [6] has as its system C6 glioma cells and other cells infected with this retrovirus. Particulars: cell culture; cited from earlier work.
Series [7] concerns C6VIK cells. Particulars: subcutaneous, nude mice; cited from earlier work.
Series [8] relates to C6-P450 cells. The series can be described thus: Cell proliferation assay.
Series [9] has as its system 9L-Z tumors. The experiment in a line: Tumor growth delay study. The format is in vivo, Fischer 344 rats. Particulars: 100 mg/kg single intraperitoneal injection 7 days after implantation; tumors inhibited/total, 7-8 weeks. The method, then: (§2) Tumor Growth Delay Studies: 9L cells were grown subcutaneously (s.c.) as solid tumors in female Fischer 344 rats. Adult female Fischer 344 rats (120-150g) were inoculated at 2×10^6 cells/s.c. site; cytochrome P450 2B1-negative cells (parental 9L or 9L-Z cells) were injected in one thigh and cytochrome P450 2B1-positive cells (9L-ZP or L450-2 cells) in the other thigh. This strategy was employed to control any potential effects that subcutaneous growth of the 9L tumor might have on liver cytochrome P450-dependent cyclophosphamide activation activity. Drug treatment was initiated seven days after tumor implantation. Rats were randomized and divided into two groups. One group was treated with cyclophosphamide at 100 mg/kg body weight given as a single intraperitoneal injection. Another group was injected with saline as control. Tumor size was monitored by caliper measurement at times ranging up to 7-8 weeks, at which point the animals were sacrificed.

Series [10] concerns 9L-ZP tumors. The series can be described thus: Tumor growth delay study. The format is in vivo, Fischer 344 rats. To be noted: 100 mg/kg single intraperitoneal injection 7 days after implantation; tumors inhibited/total, 7-8 weeks. As for the experimental part: as §2
For series [11], the system named is L450-2 tumors. The series can be described thus: Tumor growth delay study. Type of series: in vivo, Fischer 344 rats. To be noted: 100 mg/kg single intraperitoneal injection 7 days after implantation; tumors inhibited/total, 7-8 weeks. As for the experimental part:
as §2

Series [12] deals with 9L tumors. The series can be described thus: Tumor growth delay study. Type of series: in vivo, Fischer 344 rats. To be noted: 100 mg/kg single intraperitoneal injection 7 days after implantation; tumors inhibited/total, 7-8 weeks. The method, then:
as §2

For series [13], the system named is 9L-ZP cells. The experiment in a line: Drug sensitivity of cultured 9L cells with or without metyrapone. To be noted: Rattus norvegicus, 120 h.
Series [14] concerns C6 cells co-cultured with irradiated C6-P450 cells. The series can be described thus: Co-culture assay with irradiated cells. The format is cell-based. Particulars: Rattus norvegicus, light or radiation study, 96 h; 10% irradiated C6-P450 cells; 0.5 mM CPA, four days; read-out: decrease in the proliferation of C6 cells. As for the experimental part: (§3) Co-culture assay: Co-cultures of C6-P450 and C6 cells were incubated in triplicate at different ratios (where 0, 10, 50, 90, and 100% of the cells were C6-P450 cells) to achieve a total number of 2×10^6 cells/10 cm dish. After 24 hours, 0.5 mM CPA was added and four days later, cells were counted as previously described. To compare the killing achieved by cell contact with that obtained by exposure to conditioned medium, the supernatant from each co-culture was harvested, filtered through 0.45 μm membrane filters, mixed in a 1:1 ratio with 5 mL of fresh medium and added to overnight cultures of C6 cells (2×10^6 cells/10 cm dish in triplicate). Four days later, C6 cells were washed, harvested and counted. To determine the specificity of the cell-mediated killing effect from the co-culture assays, C6 cells were incubated overnight with C6 cells that expressed the neomycin phosphotransferase gene (C6-Neo), with irradiated C6 cells, with irradiated C6-Neo, and with irradiated C6-P450 cells. γ-irradiation was performed by exposing cells to a total of 6000 rads emitted by a ^51 chromium source.

For series [15], the system named is C6 cells co-cultured with C6-P450 cells. The experiment in a line: Co-culture assay (cell-mediated effect). Type of series: cell-based, rat. To be noted: 0.5 mM CPA; for inhibition at 500 µM: Rattus norvegicus, C6, 96 h, 4 days, read-out: decrease in the proliferation of C6 cells. As for the experimental part: as §3
In series [16] the test system is C6 cells. The series can be described thus: Cyclophosphamide dose-response assay. The format is cell-based. To be noted: Rattus norvegicus, up to 1 mM CPA, read-out: cells that survived incubation.
Experimental: Two days later CPA was added to final concentrations of 0-100 μM. Five days after plating, the monolayers were rinsed twice with Hank's buffered saline (GIBCO) to remove dead cells. Monolayers were dispersed using trypsin-EDTA (GIBCO), and cell numbers were determined using a Coulter counter (Coulter Electronics Inc.).

SMILES strings stand for the structures. Where two headings read alike, the source gives them in different places.

Turning to `Nc1nc(O)c2ncn(COC(CO)CO)c2n1` [ganciclovir], the “ganciclovir sensitivity compared to C6BAG cells alone” value in series [1] is on record as “no significant difference”. In [2], the “Tumor volume compared to C6BAG and C6BU1 tumors” value was “significant decrease in the tumor volume”. The IC50 in [3] was determined as 10 nM; in [4], 0.3 nM. Moreover, the Tumor growth result is “had no effect on tumor growth” in series [5] and “inhibited tumor growth” in series [7]. In [6], the “fold lower ganciclovir concentration killing infected vs uninfected cells” value is 100 fold.
For `O=P1(N(CCCl)CCCl)NCCCO1` (centres unmarked) [cyclophosphamide], in series [8] (0.5 mM CPA, 10 days), the Growth inhibition result is “complete growth inhibition”. In addition, the “Effect on cell proliferation” value in series [8] (0.5 mM, four days) is “complete inhibition of cell proliferation”. Further, the “Cell proliferation assay, number of cells” value in [8] (Table V panel A, 0.5 mM, four days) is recorded as 1.15±0.11 ×10^6. The “Complete Tumor Growth Inhibition” value in series [9] was 0/9; in [10], 8/9; in series [11], 11/11; in series [12], 0/11. In series [13], this compound came in with a cytotoxicity at 1000 µM of more than 90%. For the same compound, the inhibition at 500 µM was 30% in series [14], 75% in [15] (10% of cells express the P450 gene) and approximately 85% in series [15] (50% of cells contain the P450 gene). For the same compound, in series [15] (90% C6-P450 cells, four days), the “Inhibition of proliferation of remaining C6 cells” value is “complete inhibition”. Moreover, in series [16], the viability at 1000 µM is not below 80%.
